{
  "source": "patent US8927583B2",
  "about": "“Pesticidal composition comprising a 2-pyrdilmethylbenzamide derivative and an insecticide compound” (Bayer Cropscience AG, priority 2006, dated 2015)",
  "format_in_all_cases": "in vivo",
  "key": {"[1]": {"system": "Plutella xylostella", "test": "Plutella xylostella test (cabbage leaf dip, larvae mortality)", "conditions": "mortality after 3 d, cabbage leaves", "experimental": "To produce a suitable preparation of active compound, 1 part by weight of active compound is mixed with the stated amount of solvent and emulsifier, and the concentrate is diluted with emulsifier-containing water to the desired concentration. Cabbage leaves (Brassica oleracea) are treated by being dipped into the preparation of the active compound of the desired concentration and are infested with larvae of the diamond back moth (Plutella xylostella) as long as the leaves are still moist. After the specified period of time, the mortality in % is determined. 100% means that all the caterpillars have been killed; 0% means that none of the caterpillars have been killed."}, "[2]": {"system": "Spodoptera exigua", "test": "Spodoptera exigua test (cabbage leaf dip, larvae mortality)", "conditions": "500 ppm, mortality after 3 d, cabbage leaves", "experimental": "(§1) To produce a suitable preparation of active compound, 1 part by weight of active compound is mixed with the stated amount of solvent and emulsifier, and the concentrate is diluted with emulsifier-containing water to the desired concentration.\nCabbage leaves (Brassica oleracea) are treated by being dipped into the preparation of the active compound of the desired concentration and are infested with larvae of the beet army worm (Spodoptera exigua) as long as the leaves are still moist.\n(§2) After the specified period of time, the mortality in % is determined. 100% means that all the caterpillars have been killed; 0% means that none of the caterpillars have been killed."}, "[3]": {"system": "Spodoptera frugiperda", "test": "Spodoptera frugiperda test (cabbage leaf dip, larvae mortality)", "conditions": "cabbage leaves; for Efficacy in % after 6 d: mortality after 6 d; for Efficacy in % after 4 d: mortality after 4 d", "experimental": "as §1\nCabbage leaves (Brassica oleracea) are treated by being dipped into the preparation of the active compound of the desired concentration and are infested with larvae of the fall army worm (Spodoptera frugiperda) as long as the leaves are still moist.\nas §2"}},
  "data": [
    {"compound": "CN/C(=N\\[N+](=O)[O-])NCc1cnc(Cl)s1", "note": "[Clothianidin]", "values": [
      {"measurement": "Efficacy in % after 3 d", "setting": "[1]; 4 ppm", "value": 0, "unit": "%"}
    ]},
    {"compound": "O=C(NCc1ncc(C(F)(F)F)cc1Cl)c1c(Cl)cccc1Cl", "note": "[Fluopicolide, 2,6-dichloro-N-{[3-chloro-5-(trifluoromethyl)-2-pyridinyl]methyl}-benzamide]", "values": [
      {"measurement": "Efficacy in % after 3 d", "setting": "[1]; 200 ppm", "value": 0, "unit": "%"},
      {"measurement": "Efficacy in % after 3 d", "setting": "[2]", "value": 0, "unit": "%"},
      {"measurement": "Efficacy in % after 6 d", "setting": "[3]; 200 ppm", "value": 0, "unit": "%"},
      {"measurement": "Efficacy in % after 4 d", "setting": "[3]; 500 ppm", "value": 0, "unit": "%"}
    ]},
    {"compound": "O=[N+]([O-])NC1=NCCN1Cc1ccc(Cl)nc1", "note": "[Imidacloprid]", "values": [
      {"measurement": "Efficacy in % after 3 d", "setting": "[2]", "value": 40, "unit": "%"}
    ]},
    {"compound": "N#C/N=C1\\SCCN1Cc1ccc(Cl)nc1", "note": "[Thiacloprid]", "values": [
      {"measurement": "Efficacy in % after 4 d", "setting": "[3]; 20 ppm", "value": 25, "unit": "%"}
    ]},
    {"compound": "CN1COCN(Cc2cnc(Cl)s2)/C1=N\\[N+](=O)[O-]", "note": "[Thiamethoxam]", "values": [
      {"measurement": "Efficacy in % after 6 d", "setting": "[3]; 100 ppm", "value": 0, "unit": "%"}
    ]}
  ]
}
